Test [1] deals with sumoylation levels (SUMO 2/3 conjugates) in HCT-116 cells. Nature of the test: HCT-116 4 Hour Cell Assay (Western, SUMO 2/3 conjugates). The class given is cell-based. To be noted: 4 h treatment, Anti-Sumo 2-3 immunoblot, read-out: HCT-116 Western 4 h IC50 (μM) Ave. On the procedure:
This protocol describes the procedures used to assess the effects of compounds of interest on sumoylation levels. Immunoblot of SUMO 2/3 conjugates are performed and IC50 curves are generated upon quantification of sumoylations bands. HCT-116 cells are seeded in a 12 well plate (500,000 cells/well). The following day the cells are treated with compounds of interest (resuspended in DMSO) for 4 hours (11 concentrations with a three-fold dilution; starting concentration 25 μM) Following 4 hours of incubation the cells are washed with ice cold PBS 1×and protein extraction is performed with RIPA buffer supplemented with phosphatases and proteases inhibitors, 25 mM of NEM and 50 units/mL of Benzonase. Samples undergo centrifugation at 13,000 RPM, 4° C., for 10 minutes and the supernatant is collected. Protein quantification is performed using BCA. Non-Reducing Laemmli Buffer is added to the samples. Samples are heated at 75° C. for 10 minutes, and are centrifuged for 3 minutes at 9000 RPM Nupage 4-12% Bis Tris gels and 1× MOPS buffer (Fisher Scientific)+1× NuPAGE Antioxidant (Invitrogen) are used to perform the SDS-PAGE gel electrophoresis (20 to 40 μg of proteins are loaded in the gels). Proteins are then transferred to PVDF membranes and the level of total proteins are measured by staining with Revert Total Protein Stain and the fluorescent bands are acquired using the LI-COR FC (700 nm for 1 min) Membranes are blocked for 5 minutes with Bio-Rad Blocking Buffer and are subsequently incubated over night at 4° C. with Anti-Sumo 2-3 mAb (M BL #M114-3, 1:1000 in Bio-Rad Blocking Buffer, 0.2% Tween 20) Membranes are washed with 1×TBS-T (3 times for 5 minutes) and sumoylation is detected using Li-cor IRDye 800CW Goat anti-Mouse IgG secondary antibody (1:10,000 dilution) upon 1 hour of incubation in blocking buffer with 0.2% Tween 20 and 0.01% SDS. After the incubation, the membranes are washed with 1×TBS-T (3 times for 5 minutes). To visualize the fluorescent bands the membranes are scanned with LI-COR FC (700 nm for 1 min and […] for 2 mins). Sumoylation levels are quantified upon normalization with total protein levels, using the LI-COR Image Studio Lite 5.2 Software.

The target of the next test is SAE1 (Homo sapiens (Human), UniProt Q9UBE0+Q9UBT2). Nature of the test: SAE High Throughput Biochemical Assay (HTRF), 15 min preincubation. To be noted: read-out: 15 min preincubation HTRF IC50 (μM) Ave, SAE1 12.5 nM, ATP 100 μM. In outline: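 SAE1 (12.5 nM) was preincubated with compound for 15 min at RT in HEPES pH 7.5, 0.1% BSA, 10 mM MgCl2. The reaction was then started with SUMO-GST and UBC9-His (40 nM each) plus 100 μM ATP for 45 min. After KF stop, HTRF (anti-GST-XL665/anti-His-EuK) was read at 2 h and overnight; some compounds were tested singly at 25 micromolar as percent of control.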
Chain of SAE1 (Q9UBE0 whole entry): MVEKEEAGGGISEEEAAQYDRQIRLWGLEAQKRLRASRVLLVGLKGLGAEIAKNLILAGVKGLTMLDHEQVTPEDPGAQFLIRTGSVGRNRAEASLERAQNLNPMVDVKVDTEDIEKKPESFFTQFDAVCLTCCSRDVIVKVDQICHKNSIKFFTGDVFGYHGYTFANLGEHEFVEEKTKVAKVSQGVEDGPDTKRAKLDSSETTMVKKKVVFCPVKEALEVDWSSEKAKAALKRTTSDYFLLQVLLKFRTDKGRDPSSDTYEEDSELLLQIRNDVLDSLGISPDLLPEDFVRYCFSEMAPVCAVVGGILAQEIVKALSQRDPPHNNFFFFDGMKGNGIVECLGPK
Chain of SAE1 (Q9UBT2 whole entry): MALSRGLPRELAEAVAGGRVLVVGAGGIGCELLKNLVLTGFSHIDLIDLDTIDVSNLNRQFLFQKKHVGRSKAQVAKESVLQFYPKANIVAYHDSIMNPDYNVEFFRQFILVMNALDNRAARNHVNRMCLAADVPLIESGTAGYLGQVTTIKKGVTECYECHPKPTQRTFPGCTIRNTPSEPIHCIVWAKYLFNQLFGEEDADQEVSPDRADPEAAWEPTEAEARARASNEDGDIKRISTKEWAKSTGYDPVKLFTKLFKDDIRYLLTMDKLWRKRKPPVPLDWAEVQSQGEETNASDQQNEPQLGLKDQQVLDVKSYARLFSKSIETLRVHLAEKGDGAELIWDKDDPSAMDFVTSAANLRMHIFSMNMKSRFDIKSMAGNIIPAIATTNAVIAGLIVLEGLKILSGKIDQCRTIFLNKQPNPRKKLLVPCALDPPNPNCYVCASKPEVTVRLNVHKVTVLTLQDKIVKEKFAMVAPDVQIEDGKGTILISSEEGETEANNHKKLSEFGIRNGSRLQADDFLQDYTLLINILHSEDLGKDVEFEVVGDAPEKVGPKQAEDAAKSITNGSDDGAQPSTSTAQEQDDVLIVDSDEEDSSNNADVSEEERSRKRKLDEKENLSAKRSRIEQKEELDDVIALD
In general terms: Time-resolved FRET reads energy transfer from a long-lived donor to a nearby acceptor.

Read-outs that look alike come from different tables or passages of the source.

By IC50 is commonly meant the concentration needed to halve the response being measured. Take `CCn1cc(-c2ccccc2[C@@H]2CN(C(=O)/C=C/[C@@H]3CC(C)(C)CN3)Cc3sc(C#N)cc32)c(C(F)(F)F)n1` [Example 83, (S)-6-((E)-3-((S)-4,4-Dimethylpyrrolidin-2-yl)acryloyl)-4-(2-(1-ethyl-3-(trifluoromethyl)-1H pyrazol-4-yl)phenyl)-4,5,6,7-tetrahydrothieno[2,3-c]pyridine-2-carbonitrile]: the half-inhibitory concentration (IC50) in test [1] (Homo sapiens, HCT-116, 4 h) was found to be 0.309 µM; on SAE1, 0.76 µM.
In the same order, the values of `CCn1cc(-c2ccccc2[C@@H]2CN(C(=O)/C=C/[C@H](C)NC)Cc3sc(C#N)cc32)c(C(F)(F)F)n1` [Example 84, (S)-4-(2-(1-Ethyl-3-(trifluoromethyl)-1 H pyrazol-4-yl)phenyl)-6-((S, E)-4-(methylamino)pent-2-enoyl)-4,5,6,7-tetrahydrothieno[2,3-c]pyridine-2-carbonitrile] are 0.503 µM and 2.79 µM.
Take `CCn1cc(-c2c(F)cccc2[C@@H]2CN(C(=O)/C=C/[C@@H]3C[C@H]4C[C@H]4N3)Cc3sc(C#N)cc32)c(C(F)(F)F)n1` [Example 92, (S)-6-((E)-3-((IR,3S,5R)-2-azabicyclo[3.1.0]hexan-3-yl)acryloyl)-4-(2-(1-ethyl-3-(trifluoromethyl)-1H pyrazol-4-yl)-3-fluorophenyl)-4,5,6,7-tetrahydrothieno[2,3-c]pyridine-2-carbonitrile]: the results for the IC50 (in test [1]; on SAE1) were 0.451 µM and 0.4 µM, respectively.
Take `CCn1cc(-c2ccccc2[C@@H]2CN(C(=O)/C=C/CNC3(C)CCOCC3)Cc3sc(C#N)cc32)c(C(F)(F)F)n1` [Example 96, (S,E)-4-(2-(1-Ethyl-3-(trifluoromethyl)-1H-pyrazol-4-yl)phenyl)-6-(4-((4-methyltetrahydro-2H pyran-4-yl)amino)but-2-enoyl)-4,5,6,7-tetrahydrothieno[2,3-c]pyridine-2-carbonitrile]: the IC50 is 2.79 µM in test [1] (Homo sapiens, HCT-116, 4 h) and 2.92 µM on SAE1.
For the compound `CCNC/C=C/C(=O)N1Cc2sc(C#N)cc2[C@H](c2ccccc2-c2cn(CC)nc2C(F)(F)F)C1` [Example 99, (S, E)-4-(2-(1-Ethyl-3-(trifluoromethyl)-1 H-pyrazol-4-yl)phenyl)-6-(4-(ethylamino)but-2-enoyl)-4,5,6,7-tetrahydrothieno[2,3-c]pyridine-2-carbonitrile], the half-inhibitory concentration (IC50) in test [1] (Homo sapiens, HCT-116, 4 h) came out at 0.563 µM; at SAE1 it was 2.83 µM.
For `CCNC/C=C/C(=O)N1Cc2sc(C#N)cc2[C@H](c2cccc(F)c2-c2cn(CC)nc2C(F)(F)F)C1` [Example 100, (S, E)-4-(2-(1-Ethyl-3-(trifluoromethyl)-1 H-pyrazol-4-yl)-3-fluorophenyl)-6-(4-(ethylamino)but-2-enoyl)-4,5,6,7-tetrahydrothieno[2,3-c]pyridine-2-carbonitrile], in that order: 0.174 µM and 1.38 µM.
For the compound `CCn1cc(-c2ccccc2[C@@H]2CN(C(=O)/C=C/CNC(C)(C)C)Cc3sc(C#N)cc32)c(C(F)(F)F)n1` [Example 101, (S, E)-6-(4-(tert-Butylamino)but-2-enoyl)-4-(2-(1-ethyl-3-(trifluoromethyl)-1 H-pyrazol-4-yl)phenyl)-4,5,6,7-tetrahydrothieno[2,3-c]pyridine-2-carbonitrile], the half-maximal inhibitory concentration (IC50) in test [1] (Homo sapiens, HCT-116, 4 h) is 0.732 µM; at SAE1, 2.24 µM.
For `CCn1cc(-c2ccccc2[C@@H]2CN(C(=O)/C=C/CNC3CC3)Cc3sc(C#N)cc32)c(C(F)(F)F)n1` [Example 102, (S, E)-6-(4-(Cyclopropylamino)but-2-enoyl)-4-(2-(1-ethyl-3-(trifluoromethyl)-1 H-pyrazol-4-yl)phenyl)-4,5,6,7-tetrahydrothieno[2,3-c]pyridine-2-carbonitrile], in that order: 0.675 µM and 1.74 µM.
In the case of `CCCCNC/C=C/C(=O)N1Cc2sc(C#N)cc2[C@H](c2ccccc2-c2cn(CC)nc2C(F)(F)F)C1` [Example 103, (S, E)-6-(4-(Butylamino)but-2-enoyl)-4-(2-(1-ethyl-3-(trifluoromethyl)-1 H-pyrazol-4-yl)phenyl)-4,5,6,7-tetrahydrothieno[2,3-c]pyridine-2-carbonitrile], the concentration for half-maximal inhibition (IC50) in test [1] (Homo sapiens, HCT-116, 4 h) was determined as 1.66 µM; at SAE1, 2.66 µM.
`CCn1cc(-c2ccccc2[C@@H]2CN(C(=O)/C=C/CNCC(C)C)Cc3sc(C#N)cc32)c(C(F)(F)F)n1` [Example 104]: the half-maximal inhibitory concentration (IC50) in test [1] (Homo sapiens, HCT-116, 4 h) is 1.78 µM; at SAE1, 2.14 µM.
Take `CCn1cc(-c2ccccc2[C@@H]2CN(C(=O)/C=C/CNC(C)C)Cc3sc(C#N)cc32)c(C(F)(F)F)n1` [Example 105, (S,E)-4-(2-(1-Ethyl-3-(trifluoromethyl)-1 H-pyrazol-4-yl)phenyl)-6-(4-(isopropylamino)but-2-enoyl)-4,5,6,7-tetrahydrothieno[2,3-c]pyridine-2-carbonitrile]: the 50% inhibitory concentration (IC50) in test [1] (Homo sapiens, HCT-116, 4 h) came out at 0.62 µM; at SAE1, 2.42 µM.
In the same order, the values of `CCn1cc(-c2c(F)cccc2[C@@H]2CN(C(=O)/C=C/CNC(C)C)Cc3sc(C#N)cc32)c(C(F)(F)F)n1` [Example 106, (S,E)-4-(2-(1-Ethyl-3-(trifluoromethyl)-1H pyrazol-4-yl)-3-fluorophenyl)-6-(4-(isopropylamino)but-2-enoyl)-4,5,6,7-tetrahydrothieno[2,3-c]pyridine-2-carbonitrile] are 0.283 µM and 0.8 µM.
In the same order, the values of `CCn1cc(-c2ccccc2[C@@H]2CN(C(=O)/C=C/C3CCCN3)Cc3sc(C#N)cc32)c(C(F)(F)F)n1` (stereo partly drawn) [Example 107, (4S)-4-(2-(1-Ethyl-3-(trifluoromethyl)-1 H-pyrazol-4-yl)phenyl)-6-((E)-3-(pyrrolidin-2-yl)acryloyl)-4,5,6,7-tetrahydrothieno[2,3-c]pyridine-2-carbonitrile] are 0.226 µM and 2.07 µM.
For the compound `CCn1cc(-c2ccccc2[C@@H]2CN(C(=O)/C=C/C3CCCCN3)Cc3sc(C#N)cc32)c(C(F)(F)F)n1` (stereo partly drawn) [Example 111, (4S)-4-(2-(1-Ethyl-3-(trifluoromethyl)-1H pyrazol-4-yl)phenyl)-6-((E)-3-(piperidin-2-yl)acryloyl)-4,5,6,7-tetrahydrothieno[2,3-c]pyridine-2-carbonitrile], the IC50 is 0.909 µM in test [1] (Homo sapiens, HCT-116, 4 h) and 3.36 µM at SAE1.
For `CCn1cc(-c2ccccc2[C@@H]2CN(C(=O)/C=C/[C@@H]3CCCN3)Cc3sc(C#N)cc32)c(C(F)(F)F)n1` [Example 112], in that order: 0.209 µM and 0.76 µM.
As to `CCn1cc(-c2ccccc2[C@@H]2CN(C(=O)/C=C/[C@H]3CCCN3)Cc3sc(C#N)cc32)c(C(F)(F)F)n1` [Example 113, (S)-4-(2-(1-Ethyl-3-(trifluoromethyl)-1 H-pyrazol-4-yl)phenyl)-6-((E)-3-((R)-pyrrolidin-2-yl)acryloyl)-4,5,6,7-tetrahydrothieno[2,3-c]pyridine-2-carbonitrile], the IC50 in test [1] (Homo sapiens, HCT-116, 4 h) came to 1.79 µM; at SAE1 it was 1.61 µM.
As for `CCn1cc(-c2ccccc2[C@@H]2CN(C(=O)/C=C/[C@@H]3C[C@@H](C)CN3)Cc3sc(C#N)cc32)c(C(F)(F)F)n1` [Example 114, (S)-4-(2-(1-Ethyl-3-(trifluoromethyl)-1 H-pyrazol-4-yl)phenyl)-6-((E)-3-((2S, 4R)-4-methylpyrrolidin-2-yl)acryloyl)-4,5,6,7-tetrahydrothieno[2,3-c]pyridine-2-carbonitrile], the IC50 was 0.262 µM in test [1] (Homo sapiens, HCT-116, 4 h) and 1.19 µM at SAE1.
Take `CCn1cc(-c2ccccc2[C@@H]2CN(C(=O)/C=C/[C@@H]3CCCCN3)Cc3sc(C#N)cc32)c(C(F)(F)F)n1` [Example 115, (S)-4-(2-(1-Ethyl-3-(trifluoromethyl)-1H pyrazol-4-yl)phenyl)-6-((E)-3-((S)-piperidin-2-yl)acryloyl)-4,5,6,7-tetrahydrothieno[2,3-c]pyridine-2-carbonitrile]: the concentration for half-maximal inhibition (IC50) in test [1] (Homo sapiens, HCT-116, 4 h) worked out at 0.6 µM; on SAE1, 1.95 µM.
For `CCn1cc(-c2ccccc2[C@@H]2CN(C(=O)/C=C/[C@@H]3CC4(CC4)CN3)Cc3sc(C#N)cc32)c(C(F)(F)F)n1` [Example 116, (S)-6-((E)-3-((S)—S-Azaspiro(2.4]heptan-6-yl)acryloyl)-4-(2-(1-ethyl-3-(trifluoromethyl)-1H pyrazol-4-yl)phenyl)-4,5,6,7-tetrahydrothieno[2,3-c]pyridine-2-carbonitrile], the IC50 in test [1] (Homo sapiens, HCT-116, 4 h) is 0.202 µM; at SAE1 it was 1.49 µM.

These data come from patent US20240360148A1 (SUVALENT THERAPEUTICS, INC., priority 2021, published 2024).
